A short description of one series: Solubility in water. It is filed as physicochemical.
Series [1] in a line: Quantification of sphingosine on the coated surface by sphingosine kinase assay. Format: physicochemical. As to conditions: sphingosine kinase assay (FIG. 18B). How it is done: Plastic pieces were extracted in CHCl3/CH3OH/1N HCl (100:100:1, v/v/v), the lower phase was dried and resuspended in a detergent solution (7.5% [w/v] n-octyl glucopyranoside, 5 mM cardiolipin in 1 mM diethylenetriaminepentaacetic acid (DTPA)). The kinase reaction was initiated by addition of 0.004 units sphingosine kinase in 50 mM HEPES (pH 7.4), 250 mM NaCl, 30 mM MgCl2 1 μM ATP and 5 μCi [^32P]γATP. Samples were incubated for 60 min at 37° C. with shaking (350 rpm), then extracted in 20 μl 1N HCl, 800 μl CHCl3/CH3OH/1N HCl (100:200:1, v/v/v), 240 μl CHCl3 and 2 M KCl. The lower phase was collected, dried, dissolved in 20 μL of CHCl3:CH3OH (1:1, v/v) and separated on Silica G60 thin layer chromatography (TLC) plates using CHCl3/CH3OH/acetic acid/H2O (90:90:15:5, v/v/v/v) for SPH. The TLC plates were analyzed using a phosphoimager.
To determine the total amount of sphingosine present on the surface of the endotracheal tubes after dip coating, we performed mass spectrometry (FIG. 18A) and a sphingosine kinase radioactivity assay (FIG. 18B). Both methods confirmed a concentration of sphingosine in the nmol to μmol range per cm^2. […] Sphingosine was either extracted and analyzed by mass spectrometry (FIG. 18A) or sphingosine kinase assay (FIG. 18B). The amount of sphingosine calculated on the surface after dip coating is (A) 131 nmol/cm^2 and (B) 152.5 nmol/cm^2, respectively.

For series [2] the following is noted: inhalation, cited from earlier work.
A short description of series [3]: Quantification of sphingosine on the coated surface by mass spectrometry. It is filed as physicochemical. The settings on record: mass spectrometry (FIG. 18A). Here is the method:
Coated plastic surfaces were extracted by a one-step lipid extraction. Briefly, a plastic piece was transferred into a siliconized glass tube and adsorbed sphingosine was extracted by addition of 10 mL methanol and sonification on ice for 1 hour. After centrifugation, the lipid extract was diluted with methanol and 50 pmol of C17-sphingosine was added as internal standard. […] Ion funnel parameters were: high pressure RF voltage 110 V and low pressure RF voltage 60 V. Multiple reaction monitoring (MRM) transition 300.3 m/z>282.3 m z at 8 eV collision energy was used for quantification of sphingosine, whereas MRM transition 286.3 m/z>268.3 m/z at 8 eV collision energy was used for quantification of C17-sphingosine. Quantification was performed with Mass Hunter Software (Agilent Technologies).
To determine the total amount of sphingosine present on the surface of the endotracheal tubes after dip coating, we performed mass spectrometry (FIG. 18A) and a sphingosine kinase radioactivity assay (FIG. 18B). […] Sphingosine was either extracted and analyzed by mass spectrometry (FIG. 18A) or sphingosine kinase assay (FIG. 18B). The amount of sphingosine calculated on the surface after dip coating is (A) 131 nmol/cm^2 and (B) 152.5 nmol/cm^2, respectively.

Regarding `CCCCCCCCCCCCC/C=C/[C@@H](O)[C@@H](N)CO` [sphingosine, D-erythrosphingosine (d18:1)], the solubility in water entry in the series “Solubility in water” was “nearly completely insoluble in water”. Also, the “amount of sphingosine calculated on the surface after dip coating” value in series [1] is listed as 152.5 nmol/cm^2; in series [3], 131 nmol/cm^2. In addition, the observable toxicity result in series [2] (mice) is “did not result in any observable toxicity”. For the same molecule, the rates of pneumonia result in series [2] (susceptible mice) is “reduce rates of pneumonia in susceptible mice”.
Turning to `CCCCCCCCCCCCCC[C@@H](O)[C@@H](O)[C@@H](N)CO` [phytosphingosine, D-ribo-phytosphingosine], the solubility in water result in “Solubility in water” is listed as “nearly completely insoluble in water”.

(Values after patent US12186457B2, “Sphingolipid coatings and process for manufacturing sphingolipid coatings effective for inhibiting biofilm formation” (UNIVERSITY OF CINCINNATI, priority 2015, dated 2025).)
